Experimental data taken from ChEMBL document CHEMBL1201862, “PubChem BioAssay data set” (2004).
Activity calls are given as the source filed them.

Key:
[1] = cytotoxicity in HEK-293T cells, dose response, cytotoxicity control for TCR NF-kB inhibitor project, luminescence, T-cell screen hits (AID 489026); assay type: functional, cell-based;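 also: cells exposed to compound about 14 hours before the viability readout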
[2] = biological target: T1, Short transient receptor potential channel 4 (Mus musculus, UniProt Q9QUQ5); test: mouse TRPC4 channel activators, dose response, cell-based, HEK293 TRPC4/mu-opioid, Fluo-4 calcium (AID 434937); assay type: functional
T1 sequence (Q9QUQ5 whole entry): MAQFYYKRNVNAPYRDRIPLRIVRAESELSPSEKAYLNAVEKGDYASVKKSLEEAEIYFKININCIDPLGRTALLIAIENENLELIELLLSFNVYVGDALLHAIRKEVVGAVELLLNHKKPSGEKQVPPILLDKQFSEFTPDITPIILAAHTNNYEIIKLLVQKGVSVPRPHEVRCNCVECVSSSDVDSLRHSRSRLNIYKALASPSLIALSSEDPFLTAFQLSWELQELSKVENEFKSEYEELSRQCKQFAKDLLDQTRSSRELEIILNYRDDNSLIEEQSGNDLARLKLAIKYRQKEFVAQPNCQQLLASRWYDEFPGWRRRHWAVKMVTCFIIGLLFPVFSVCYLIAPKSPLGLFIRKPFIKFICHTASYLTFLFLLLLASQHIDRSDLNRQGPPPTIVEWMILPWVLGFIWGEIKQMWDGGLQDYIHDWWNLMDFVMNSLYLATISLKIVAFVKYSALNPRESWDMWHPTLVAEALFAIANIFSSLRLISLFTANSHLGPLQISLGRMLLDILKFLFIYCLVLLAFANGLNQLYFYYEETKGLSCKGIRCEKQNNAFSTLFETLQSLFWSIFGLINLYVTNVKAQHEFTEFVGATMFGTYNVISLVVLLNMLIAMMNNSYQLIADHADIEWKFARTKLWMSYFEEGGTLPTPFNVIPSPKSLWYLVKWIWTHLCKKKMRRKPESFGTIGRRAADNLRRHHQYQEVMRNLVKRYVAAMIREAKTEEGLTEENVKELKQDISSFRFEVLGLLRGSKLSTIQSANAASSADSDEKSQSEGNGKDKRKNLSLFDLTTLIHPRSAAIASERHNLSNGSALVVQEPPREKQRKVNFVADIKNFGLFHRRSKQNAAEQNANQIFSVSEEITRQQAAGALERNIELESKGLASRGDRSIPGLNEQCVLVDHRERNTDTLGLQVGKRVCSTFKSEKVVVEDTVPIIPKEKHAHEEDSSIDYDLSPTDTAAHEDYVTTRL

[3] = cytotoxicity in HEK-293T cells, dose response, cytotoxicity control for BCR NF-kB inhibitor project, luminescence, B-cell screen hits (AID 489021); assay type: functional, cell-based;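 also: HEK-293T cells carrying an NF-kB luciferase reporter; cells exposed to compound for about 14 hours before viability readout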
Estrogen receptor = biological target: T2, Estrogen receptor (Homo sapiens, UniProt P03372);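 also: potency for inhibiting coactivator peptide recruitment to the receptor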
T2 sequence (P03372 whole entry): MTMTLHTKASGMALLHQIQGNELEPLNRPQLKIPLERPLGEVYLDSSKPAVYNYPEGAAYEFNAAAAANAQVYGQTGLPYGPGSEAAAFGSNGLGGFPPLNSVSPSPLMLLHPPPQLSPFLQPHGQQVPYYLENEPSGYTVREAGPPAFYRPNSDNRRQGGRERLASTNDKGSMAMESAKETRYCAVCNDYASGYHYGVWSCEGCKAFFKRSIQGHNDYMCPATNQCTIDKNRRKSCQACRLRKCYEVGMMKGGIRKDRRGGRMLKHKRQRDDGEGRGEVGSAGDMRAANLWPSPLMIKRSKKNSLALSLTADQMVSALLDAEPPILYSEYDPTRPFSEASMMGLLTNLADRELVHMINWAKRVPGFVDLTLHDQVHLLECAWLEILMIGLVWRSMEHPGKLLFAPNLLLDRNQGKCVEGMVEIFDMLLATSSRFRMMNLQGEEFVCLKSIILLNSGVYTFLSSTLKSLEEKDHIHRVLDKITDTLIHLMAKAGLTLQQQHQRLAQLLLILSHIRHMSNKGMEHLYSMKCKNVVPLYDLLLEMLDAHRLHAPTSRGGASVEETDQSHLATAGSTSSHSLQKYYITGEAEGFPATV

[4] = cytotoxicity in HPDE-C7 cells, cell-based, fluorescence, HTS (AID 430); assay type: functional; conditions: Homo sapiens
[5] = cytotoxicity in KRAS-transformed pancreatic duct cells, primary screen, cell-based, fluorescence, HTS (AID 431); assay type: functional; conditions: Homo sapiens;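 also: cell line used: HPDE-C7K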
[6] = A cytotoxicity screen of small molecule inhibitors of the PhoP region in Salmonella typhi identified in the primary screen. [Related pubchem assays: 1850, 1864, 1985 ]; assay type: functional
[7] = biological target: Voltage-dependent T-type calcium channel subunit alpha-1H (Homo sapiens, UniProt O95180); assay type: functional;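 also: channel activity triggered by adding a high calcium stimulation buffer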
[8] = biological target: Eukaryotic translation initiation factor 4E (Mus musculus, UniProt P63073); test: eIF4E–eIF4G protein interaction inhibitors, dose response, biochemical, TR-FRET (AID 855); assay type: functional;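 also: potency for disrupting eIF4E binding to eIF4GI seen as loss of FRET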
Eukaryotic translation initiation factor 4E, sequence (P63073 whole entry): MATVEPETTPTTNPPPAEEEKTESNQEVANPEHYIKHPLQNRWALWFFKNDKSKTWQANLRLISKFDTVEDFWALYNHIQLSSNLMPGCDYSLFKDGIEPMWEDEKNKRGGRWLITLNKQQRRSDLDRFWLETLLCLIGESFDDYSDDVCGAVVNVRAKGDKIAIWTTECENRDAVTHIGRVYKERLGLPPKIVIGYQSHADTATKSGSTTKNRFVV

Voltage-dependent T-type calcium channel subunit alpha-1H, sequence (O95180 whole entry): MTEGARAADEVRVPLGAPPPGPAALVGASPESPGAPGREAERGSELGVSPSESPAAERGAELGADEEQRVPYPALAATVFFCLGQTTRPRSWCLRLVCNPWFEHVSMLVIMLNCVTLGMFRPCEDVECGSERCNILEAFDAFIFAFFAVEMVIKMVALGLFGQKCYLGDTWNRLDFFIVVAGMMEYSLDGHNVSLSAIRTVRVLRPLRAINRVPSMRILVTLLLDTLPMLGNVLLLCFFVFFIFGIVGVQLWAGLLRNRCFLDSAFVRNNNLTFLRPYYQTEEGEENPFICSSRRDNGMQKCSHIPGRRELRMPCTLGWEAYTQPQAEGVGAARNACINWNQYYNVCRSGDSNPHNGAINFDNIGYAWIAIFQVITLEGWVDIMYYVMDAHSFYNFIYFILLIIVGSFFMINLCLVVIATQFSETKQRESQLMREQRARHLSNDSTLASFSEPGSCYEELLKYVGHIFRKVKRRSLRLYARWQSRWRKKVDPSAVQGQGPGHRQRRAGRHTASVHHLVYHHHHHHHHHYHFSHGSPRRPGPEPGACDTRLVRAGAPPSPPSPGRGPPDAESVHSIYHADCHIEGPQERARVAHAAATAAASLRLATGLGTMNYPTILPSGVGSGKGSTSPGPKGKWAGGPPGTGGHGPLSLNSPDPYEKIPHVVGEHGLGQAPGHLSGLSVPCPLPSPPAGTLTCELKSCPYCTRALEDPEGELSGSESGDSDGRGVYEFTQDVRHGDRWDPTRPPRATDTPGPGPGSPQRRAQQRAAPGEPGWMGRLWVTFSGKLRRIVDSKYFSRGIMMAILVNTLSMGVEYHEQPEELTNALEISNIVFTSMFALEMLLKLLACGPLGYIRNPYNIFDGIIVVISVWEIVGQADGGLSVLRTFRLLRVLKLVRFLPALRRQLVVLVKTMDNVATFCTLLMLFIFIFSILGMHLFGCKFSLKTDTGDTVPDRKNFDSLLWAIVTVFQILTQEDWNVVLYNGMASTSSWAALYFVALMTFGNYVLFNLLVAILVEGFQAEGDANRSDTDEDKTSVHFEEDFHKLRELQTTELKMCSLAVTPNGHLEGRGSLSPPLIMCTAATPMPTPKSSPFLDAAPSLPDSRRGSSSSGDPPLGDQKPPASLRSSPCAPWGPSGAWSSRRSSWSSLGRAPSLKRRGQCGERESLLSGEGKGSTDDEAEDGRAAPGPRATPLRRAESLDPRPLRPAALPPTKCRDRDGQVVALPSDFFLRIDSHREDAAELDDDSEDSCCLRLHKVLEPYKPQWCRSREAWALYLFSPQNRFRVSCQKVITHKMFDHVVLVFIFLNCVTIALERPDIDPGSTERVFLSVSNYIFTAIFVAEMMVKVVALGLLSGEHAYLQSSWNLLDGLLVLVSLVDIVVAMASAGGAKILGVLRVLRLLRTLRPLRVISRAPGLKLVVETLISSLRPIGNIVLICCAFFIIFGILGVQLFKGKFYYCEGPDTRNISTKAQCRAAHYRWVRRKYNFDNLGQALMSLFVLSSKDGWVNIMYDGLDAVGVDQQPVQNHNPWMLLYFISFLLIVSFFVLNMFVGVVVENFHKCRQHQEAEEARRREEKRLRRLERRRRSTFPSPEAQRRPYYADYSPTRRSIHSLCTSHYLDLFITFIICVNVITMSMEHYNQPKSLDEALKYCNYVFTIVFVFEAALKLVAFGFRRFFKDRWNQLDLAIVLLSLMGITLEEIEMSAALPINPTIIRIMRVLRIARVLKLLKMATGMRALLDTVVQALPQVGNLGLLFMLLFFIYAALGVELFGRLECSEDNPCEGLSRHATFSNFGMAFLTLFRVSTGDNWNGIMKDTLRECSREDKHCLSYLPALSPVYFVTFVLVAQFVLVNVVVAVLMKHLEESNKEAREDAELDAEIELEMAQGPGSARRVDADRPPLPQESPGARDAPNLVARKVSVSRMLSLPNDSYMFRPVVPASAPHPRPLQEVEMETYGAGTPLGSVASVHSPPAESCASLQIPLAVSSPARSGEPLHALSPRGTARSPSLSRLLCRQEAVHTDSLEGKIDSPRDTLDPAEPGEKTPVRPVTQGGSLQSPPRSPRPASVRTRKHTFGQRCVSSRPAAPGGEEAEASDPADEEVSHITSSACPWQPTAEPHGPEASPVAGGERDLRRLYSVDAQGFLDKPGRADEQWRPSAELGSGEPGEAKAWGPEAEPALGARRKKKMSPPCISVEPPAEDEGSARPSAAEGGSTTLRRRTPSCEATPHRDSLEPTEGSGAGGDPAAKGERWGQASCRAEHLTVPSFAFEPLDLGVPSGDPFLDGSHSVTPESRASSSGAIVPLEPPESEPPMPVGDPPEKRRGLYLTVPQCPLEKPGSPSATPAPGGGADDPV

With `CCOC(=O)c1[nH]c(C)c(C(=O)Nc2cc(OC)ccc2OC)c1C` the IC50 [1] was > 80 µM (inactive).
For `Cc1ccn(CC(=O)NC2CCCN(Cc3ccc(CC(C)C)cc3)C2)n1` (stereo unspecified), the EC50 [2] was 1.68 µM (active).
With `Cc1cc(-c2ccc(S(=O)(=O)N(C)c3ccc(C)c(C)c3)s2)on1` the IC50 [1] was > 80 µM (inactive).
For `Cn1c(=O)cc(Nc2ccccc2)c2c(=O)n(-c3ccccc3)c(=O)n(-c3ccccc3)c21`, the IC50 [3] was > 80 µM (inactive).
With `COc1cc(C)c(S(=O)(=O)NCc2ccc3c(c2)OCO3)cc1C` the IC50 (Estrogen receptor) was > 50 µM (not active).
With `Cc1cc(NCc2ccccc2)nc(-c2ccccc2O)n1` the EC50 [4] was 19.2 µM (active) and the EC50 [5] was 10.3 µM (active).
With `c1cnc2nc(-c3ccc4c(c3)OCO4)cn2c1` the EC50 [6] was > 50 µM (active).
For `C=CCn1c(SC(C)C(=O)NCCC2=CCCCC2)nc2ccccc2c1=O` (stereo unspecified), the EC50 [7] was 3.01 µM (active).
For `Cc1cc(CSc2ccccc2)ccc1NC(=O)c1cccc([N+](=O)[O-])c1`, the IC50 [8] was > 64 µM (inactive).
In the case of `CSc1nccc(-c2nn(-c3ccc(C)cc3)ccc2=O)n1`, the IC50 [1] is reported as > 80 µM (inactive).
With `CC(C)(C)n1nnnc1C(c1cccs1)N1CCCc2ccccc21` (stereo unspecified) the EC50 [7] was 8.88 µM (active).
For `O=C(OCn1nnc2ccccc2c1=O)c1cn(-c2ccccc2)nc1-c1cccnc1`, the IC50 (Estrogen receptor) was > 50 µM (not active).
In the case of `CCN1CCN(c2nc3ccccc3nc2C(C#N)S(=O)(=O)c2ccc(C)cc2)CC1` (stereo unspecified), the EC50 [6] is reported as > 50 µM (active).
With `O=C(COc1ccc(Cl)cc1Cl)Nc1nc2n(n1)C(c1ccccc1)CC(=O)N2` (stereo unspecified) the EC50 [7] was 1.98 µM (active).
In the case of `CC(C)(C)c1ccc(-c2nnc(SCC(=O)NC3CC3)o2)cc1`, the IC50 [3] is reported as > 80 µM (inactive).
